This note sets out measurements from US20210062160A1, “THERAPEUTIC AND IMMUNOMODULATORY BACTERIOPHAGE FORMULATIONS AND METHODS FOR MAKING AND USING THEM” (priority 2017, published 2021).

Experiment [1] relates to MDCK cells. Briefly: Inhibition of T4 phage transcytosis across MDCK monolayers by chemical inhibitors. As to conditions: for Inhibitor transcytosis Median ± s.d.: T4 phages across MDCK pretreated 18 hrs: Brefeldin A 5 μgmL^−1, Wortmannin 100 nM, Bafilomycin 0.5 μM, Chloroquine 100 μM, W-7 100 μM, solvent 7.9 ± 3 × 10^4; for effect of inhibitor on phage transcytosis: T4 phages across inhibitor-treated MDCK cells vs solvent control. The format is cell-based, canine. Here is the method:
All cells were seeded at a density of 0.5-1×10^6 cells per well and allowed to grow to confluency (3-5 days). For apical-to-basal transcytosis the apical wells were incubated in Hanks Buffered Salt Solution (HBSS) at pH 6.0 and basal cells in HBSS at pH 7.4 for two hours to mimic pH-dependent uptake (2). For basal-to-apical transcytosis the buffers were switched. Bacteriophages were applied with the HBBS pH 6.0 buffer, incubated with cells for two hours and phage from both apical and basal cell layers quantified by plating with bacterial host.
Permeation of phages throughout the eukaryotic cell. The mechanism of phage access to Eukaryotic cells remains ambiguous (22, 24, 29). […] Inhibition of phage transcytosis was reported as the percentage of phages transcytosed across inhibitor-treated cells, compared to cells treated with a solvent control (FIG. 3A and Table S3).
Before this invention, the mechanism of phage transcytosis across eukaryotic cells remained ambiguous, see e.g., Duerkop et al., 2013, Resident viruses and their interactions with the immune system, Nat Immunol 14:654-9; Merril, et al., 1996, Long-circulating bacteriophage as antibacterial agents, Proc Natl Acad Sci 93:3188-3192; Aronow, et al., 1964, Electron microscopy of in vitro endocytosis of T2 phage by cells from rabbit perioneal exudate, J Exp Med 120. […] Inhibition of phage transcytosis was reported as the percentage of phages transcytosed across inhibitor-treated cells compared to cells treated with a solvent control (FIG. 13).

Experiment [2] concerns MDCK cells. The experiment in a line: Fluorescence-positive MDCK cells after treatment with labeled T4 phages. The format is cell-based, canine. As to conditions: n=1008, mean. An excerpt: T4 phage were fluorescently labeled and visualized within MDCK cells (FIG. 4A-C).

Regarding `CCN(CC)CCCC(C)Nc1ccnc2cc(Cl)ccc12` (centres unmarked) [Chloroquine], in the experiment on MDCK cells [1], the “Inhibitor transcytosis Median ± s.d.” value is listed as 5.3 ± 2.7 × 10^4 and the “effect of inhibitor on phage transcytosis” value (“effect of inhibitor” below) was “no significant treatment effects”.
`C[C@H]1CCC/C=C/[C@@H]2C[C@H](O)C[C@H]2[C@H](O)/C=C/C(=O)O1` [Brefeldin A]: the “proportion of fluorescence-positive cells treated with BFA and labeled T4 phages” value in the experiment with MDCK cells [2] was 9.98%. In the experiment on MDCK cells [1], the “Inhibitor transcytosis Median ± s.d.” value is 2.3 ± 2.2 × 10^4 and the “effect of inhibitor” value is “significant but incomplete inhibition of transcytosis”. Besides, the “phages transcytosed compared to a solvent control” value in the experiment on MDCK cells [1] (T4 phages across inhibitor-treated MDCK cells) worked out at 38.5%.
As for `COC[C@H]1OC(=O)c2coc3c2[C@@]1(C)C1=C(C3=O)[C@@H]2CCC(=O)[C@@]2(C)C[C@H]1OC(C)=O` [Wortmannin], the “Inhibitor transcytosis Median ± s.d.” value with MDCK cells [1] is 8.1 ± 2.9 × 10^4.
As for `CO/C1=C\C(C)=C\[C@@H](C)[C@@H](O)[C@@H](C)C/C(C)=C/C=C/[C@H](OC)[C@@H]([C@@H](C)[C@@H](O)[C@H](C)[C@@]2(O)C[C@@H](O)[C@H](C)[C@@H](C(C)C)O2)OC1=O` [Bafilomycin], in the experiment with MDCK cells [1], the “Inhibitor transcytosis Median ± s.d.” value was 1 ± .19 × 10^5 and the “effect of inhibitor” value is on record as “no significant treatment effects”.
On to `NCCCCCCNS(=O)(=O)c1cccc2c(Cl)cccc12` [W-7], for which, in the experiment on MDCK cells [1], the “Inhibitor transcytosis Median ± s.d.” value is given as 8.2 ± 1.1 × 10^4 and the “effect of inhibitor” value is on record as “no significant treatment effects”.
